The text below walks through data of US20180291335A1, “MODIFIED POLYNUCLEOTIDES FOR ALTERING CELL PHENOTYPE” (ModernaTX, Inc., priority 2012, published 2018).

The test system of data set [1] is HeLa cells. Nature of the data set: Luciferase in HeLa cells using a combination of modifications. Format: cell-based, human. Conditions: 83 ng luciferase modified RNA, 18 to 22 hours. As to the method: To evaluate using of 2′fluoro-modified mRNA in combination with other modification a series of mRNA were transcribed using either wild-type T7 polymerase (non-fluoro-containing compounds) or using mutant T7 polymerases (fluyoro-containing compounds) as described in Example 86. All modified mRNA were tested by in vitro transfection in HeLa cells.
(§1) The day before transfection, 20,000 HeLa cells (ATCC no. CCL-2; Manassas, Va.) were harvested by treatment with Trypsin-EDTA solution (LifeTechnologies, Grand Island, N.Y.) and seeded in a total volume of 100 ul EMEM medium (supplemented with 10% FCS and 1× Glutamax) per well in a 96-well cell culture plate (Corning, Manassas, Va.). The cells were grown at […] in 5% CO2 atmosphere overnight. […] Lipofectamine 2000 (LifeTechnologies, Grand Island, N.Y.) was used as transfection reagent and 0.2 ul were diluted in 10 ul final volume of OPTI-MEM. After 5 minutes of incubation at room temperature, both solutions were combined and incubated an additional 15 minute at room temperature. Then the 20 ul combined solution was added to the 100 ul cell culture medium containing the HeLa cells and incubated at room temperature.
(§2) After 18 to 22 hours of incubation cells expressing luciferase were lysed with 100 ul of Passive Lysis Buffer (Promega, Madison, Wis.) according to manufacturer instructions. Aliquots of the lysates were transferred to white opaque polystyrene 96-well plates (Corning, Manassas, Va.) and combined with 100 ul complete luciferase assay solution (Promega, Madison, Wis.). The lysate volumes were adjusted or diluted until no more than 2 mio relative light units (RLU) per well were detected for the strongest signal producing samples and the RLUs for each chemistry tested are shown in Table 26. The plate reader was a BioTek Synergy H1 (BioTek, Winooski, Vt.). The background signal of the plates without reagent was about 200 relative light units per well.

For data set [2], the system named is HeLa cells. Nature of the data set: In vitro screening in HeLa cells, luciferase modified RNA. Format: cell-based, human. To be noted: HeLa cells, 83 ng luciferase modified RNA, 18 to 22 hours. As to the method: as §1
as §2, with “19.” for “26.”

Data set [3] deals with Rabbit Reticulocyte Lysate. The experiment in a line: In vitro screening in rabbit reticulocyte lysates, luciferase mRNA translation. Format: biochemical. To be noted: 250 ng luciferase mRNA, 60 minutes, 30° C. As for the experimental part:
The diluted luciferase was added to 40 ul of freshly prepared Rabbit Reticulocyte Lysate and the in vitro translation reaction was done in a standard 1.5 mL polypropylene reaction tube (Thermo Fisher Scientific, Waltham, Mass.) at 30° C. in a dry heating block. The translation assay was done with the Rabbit Reticulocyte Lysate (nuclease-treated) kit (Promega, Madison, Wis.) according to the manufacturer's instructions. The reaction buffer was supplemented with a one-to-one blend of provided amino acid stock solutions devoid of either Leucine or Methionine resulting in a reaction mix containing sufficient amounts of both amino acids to allow effective in vitro translation.
After 60 minutes of incubation, the reaction was stopped by placing the reaction tubes on ice. Aliquots of the in vitro translation reaction containing luciferase modified RNA were transferred to white opaque polystyrene 96-well plates (Corning, Manassas, Va.) and combined with 100 ul complete luciferase assay solution (Promega, Madison, Wis.). The volumes of the in vitro translation reactions were adjusted or diluted until no more than 2 mio relative light units (RLUs) per well were detected for the strongest signal producing samples and the RLUs for each chemistry tested are shown in Table 20. The plate reader was a BioTek Synergy H1 (BioTek, Winooski, Vt.). The background signal of the plates without reagent was about 200 relative light units per well.

In data set [4] the test system is interferon-alpha (IFN-alpha). Nature of the data set: 2′Fluoro chemistries in PBMC: IFN-alpha production by ELISA. It counts as cell-based, human. To be noted: G-CSF modified mRNA. (In an ELISA, binding on a coated surface is turned into a signal by an enzyme label.)
In data set [5] the test system is tumor necrosis factor-alpha (TNF-alpha). The experiment in a line: 2′Fluoro chemistries in PBMC: TNF-alpha production by ELISA. Conditions: G-CSF modified mRNA. Format: cell-based, human.
In data set [6] the test system is HeLa cells. Nature of the data set: G-CSF modified mRNA transfected in HeLa cells, G-CSF ELISA. Conditions: HeLa cells, combination chemistries, ELISA. Format: cell-based, human. As for the experimental part: To assess the activity of all our different chemical modifications in the context of a second open reading frame, we replicated experiments previously conducted using luciferase mRNA, with human G-CSF mRNA. […] The mutant T7 polymerase was obtained commercially (Durascribe® T7 Transcription kit (Cat. No. DS010925) (Epicentre®, Madison, Wis.).
The modified RNA in Tables 27 and 28 were transfected in vitro in HeLa cells or added to rabbit reticulysates (250 ng of modified mRNA) as indicated. […] In Table 27, “NT” means not tested.

Take “2′Fluoroguanine/5-methylcytidine/N1 methylpsuedouridine: Luciferase mRNA (SEQ ID NO: 409) modified with the named combination”: the RLU in data set [1] is recorded as 235 RLU.

As to “2′Fluoroguanine/N1-methylpsuedouridine: Luciferase mRNA (SEQ ID NO: 409) modified with the named combination”, in data set [1], the RLU amounted to 247 RLU.

Turning to “5-methylcytosine/pseudouridine, test A1: Luciferase mRNA (SEQ ID NO: 409) modified with 5-methylcytosine and pseudouridine; repeated tests”, the RLU in data set [2] is 48,659 RLU; in data set [2] (test A2), 295,824 RLU; in data set [2] (test A3), 438,831 RLU; in data set [2] (test B1) it was 317,744 RLU; in data set [2] (test B2), 481,477 RLU; in data set [3], 349,398 RLU. In addition, the RLU in data set [3] (test A2) was 558,779 RLU; in data set [3] (test A3) it was 413,535 RLU; in data set [3] (test B1), 454,662 RLU; in data set [3] (test B2), 487,805 RLU; in data set [1] (listed as 5-methylcytidine/pseudouridine, test A) it was 13,833 RLU; in data set [1] (listed as 5-methylcytidine/pseudouridine, test B), 115,401 RLU.

Turning to “2′Fluoroguanine/pseudouridine: Luciferase mRNA (SEQ ID NO: 409) modified with the named combination”, the RLU in data set [1] turned out to be 218 RLU.

Regarding `CCOCc1nc2c(N)nc3ccccc3c2n1CC(C)(C)O` [Compound R-848, reference compound], in data set [4], the “IFN-alpha: 3 Donor Average” value stood at 45 pg/mL. Besides, the “TNF-alpha: 2 Donor Average” value in data set [5] is reported as 8,235 pg/ml.

B1: 5-methylcytidine/5-bromouridine: G-CSF mRNA (SEQ ID NO: 408) fully modified with the named combination (nucleic acid)
chain: GGGAAAUAAGAGAGAAAAGAAGAGUAAGAAGAAAUAUAAGAGCCACCAUGGCCGGUCCCGCGACCCAAAGCCCCAUGAAACUUAUGGCCCUGCAGUUGCUGCUUUGGCACUCGGCCCUCUGGACAGUCCAAGAAGCGACUCCUCUCGGACCUGCCUCAUCGUUGCCGCAGUCAUUCCUUUUGAAGUGUCUGGAGCAGGUGCGAAAGAUUCAGGGCGAUGGAGCCGCACUCCAAGAGAAGCUCUGCGCGACAUACAAACUUUGCCAUCCCGAGGAGCUCGUACUGCUCGGGCACAGCUUGGGGAUUCCCUGGGCUCCUCUCUCGUCCUGUCCGUCGCAGGCUUUGCAGUUGGCAGGGUGCCUUUCCCAGCUCCACUCCGGUUUGUUCUUGUAUCAGGGACUGCUGCAAGCCCUUGAGGGAAUCUCGCCAGAAUUGGGCCCGACGCUGGACACGUUGCAGCUCGACGUGGCGGAUUUCGCAACAACCAUCUGGCAGCAGAUGGAGGAACUGGGGAUGGCACCCGCGCUGCAGCCCACGCAGGGGGCAAUGCCGGCCUUUGCGUCCGCGUUUCAGCGCAGGGCGGGUGGAGUCCUCGUAGCGAGCCACCUUCAAUCAUUUUUGGAAGUCUCGUACCGGGUGCUGAGACAUCUUGCGCAGCCGUGAAGCGCUGCCUUCUGCGGGGCUUGCCUUCUGGCCAUGCCCUUCUUCUCUCCCUUGCACCUGUACCUCUUGGUCUUUGAAUAAAGCCUGAGUAGGAAG
modifications: 5-methylcytidine/5-bromouridine modified; Description of Artificial Sequence: Synthetic Transcript Sequence
For B1, the “IFN-alpha: 3 Donor Average” value in data set [4] was determined as 0 pg/mL. Also, the “TNF-alpha: 2 Donor Average” value in data set [5] was found to be 270 pg/mL. The “G-CSF protein (pg/ml) HeLa cells” value in data set [6] is 48,864 pg/ml.

B2: N4-acetylcytidine/5-bromouridine: G-CSF mRNA (SEQ ID NO: 408) fully modified with the named combination (nucleic acid)
chain: GGGAAAUAAGAGAGAAAAGAAGAGUAAGAAGAAAUAUAAGAGCCACCAUGGCCGGUCCCGCGACCCAAAGCCCCAUGAAACUUAUGGCCCUGCAGUUGCUGCUUUGGCACUCGGCCCUCUGGACAGUCCAAGAAGCGACUCCUCUCGGACCUGCCUCAUCGUUGCCGCAGUCAUUCCUUUUGAAGUGUCUGGAGCAGGUGCGAAAGAUUCAGGGCGAUGGAGCCGCACUCCAAGAGAAGCUCUGCGCGACAUACAAACUUUGCCAUCCCGAGGAGCUCGUACUGCUCGGGCACAGCUUGGGGAUUCCCUGGGCUCCUCUCUCGUCCUGUCCGUCGCAGGCUUUGCAGUUGGCAGGGUGCCUUUCCCAGCUCCACUCCGGUUUGUUCUUGUAUCAGGGACUGCUGCAAGCCCUUGAGGGAAUCUCGCCAGAAUUGGGCCCGACGCUGGACACGUUGCAGCUCGACGUGGCGGAUUUCGCAACAACCAUCUGGCAGCAGAUGGAGGAACUGGGGAUGGCACCCGCGCUGCAGCCCACGCAGGGGGCAAUGCCGGCCUUUGCGUCCGCGUUUCAGCGCAGGGCGGGUGGAGUCCUCGUAGCGAGCCACCUUCAAUCAUUUUUGGAAGUCUCGUACCGGGUGCUGAGACAUCUUGCGCAGCCGUGAAGCGCUGCCUUCUGCGGGGCUUGCCUUCUGGCCAUGCCCUUCUUCUCUCCCUUGCACCUGUACCUCUUGGUCUUUGAAUAAAGCCUGAGUAGGAAG
modifications: N4-acetylcytidine/5-bromouridine modified; Description of Artificial Sequence: Synthetic Transcript Sequence
Take B2: the “IFN-alpha: 3 Donor Average” value in data set [4] was determined as 44 pg/mL. Further, the “TNF-alpha: 2 Donor Average” value in data set [5] came out at 403 pg/mL. Moreover, the “G-CSF protein (pg/ml) HeLa cells” value in data set [6] is listed as 211,591 pg/ml.
